Laboratory results published in patent publication EP4417607A1, “HETEROCYCLIC COMPOUND AS SOS1 INHIBITOR AND USES THEREOF” (Nanjing Zaiming Pharmaceutical Co., Ltd., priority 2021, dated 2023).

target: T1, KRAS G12D::SOS1 binding (Homo sapiens, UniProt Q07889); test: KRAS G12D::SOS1 binding inhibition (KRAS-G12D/SOS1 binding assay kit, Cisbio); conditions: GTP 10 µM
T1 construct: purchased Cisbio 63ADK000CB21PEH
T1 sequence (Q07889 1-1333): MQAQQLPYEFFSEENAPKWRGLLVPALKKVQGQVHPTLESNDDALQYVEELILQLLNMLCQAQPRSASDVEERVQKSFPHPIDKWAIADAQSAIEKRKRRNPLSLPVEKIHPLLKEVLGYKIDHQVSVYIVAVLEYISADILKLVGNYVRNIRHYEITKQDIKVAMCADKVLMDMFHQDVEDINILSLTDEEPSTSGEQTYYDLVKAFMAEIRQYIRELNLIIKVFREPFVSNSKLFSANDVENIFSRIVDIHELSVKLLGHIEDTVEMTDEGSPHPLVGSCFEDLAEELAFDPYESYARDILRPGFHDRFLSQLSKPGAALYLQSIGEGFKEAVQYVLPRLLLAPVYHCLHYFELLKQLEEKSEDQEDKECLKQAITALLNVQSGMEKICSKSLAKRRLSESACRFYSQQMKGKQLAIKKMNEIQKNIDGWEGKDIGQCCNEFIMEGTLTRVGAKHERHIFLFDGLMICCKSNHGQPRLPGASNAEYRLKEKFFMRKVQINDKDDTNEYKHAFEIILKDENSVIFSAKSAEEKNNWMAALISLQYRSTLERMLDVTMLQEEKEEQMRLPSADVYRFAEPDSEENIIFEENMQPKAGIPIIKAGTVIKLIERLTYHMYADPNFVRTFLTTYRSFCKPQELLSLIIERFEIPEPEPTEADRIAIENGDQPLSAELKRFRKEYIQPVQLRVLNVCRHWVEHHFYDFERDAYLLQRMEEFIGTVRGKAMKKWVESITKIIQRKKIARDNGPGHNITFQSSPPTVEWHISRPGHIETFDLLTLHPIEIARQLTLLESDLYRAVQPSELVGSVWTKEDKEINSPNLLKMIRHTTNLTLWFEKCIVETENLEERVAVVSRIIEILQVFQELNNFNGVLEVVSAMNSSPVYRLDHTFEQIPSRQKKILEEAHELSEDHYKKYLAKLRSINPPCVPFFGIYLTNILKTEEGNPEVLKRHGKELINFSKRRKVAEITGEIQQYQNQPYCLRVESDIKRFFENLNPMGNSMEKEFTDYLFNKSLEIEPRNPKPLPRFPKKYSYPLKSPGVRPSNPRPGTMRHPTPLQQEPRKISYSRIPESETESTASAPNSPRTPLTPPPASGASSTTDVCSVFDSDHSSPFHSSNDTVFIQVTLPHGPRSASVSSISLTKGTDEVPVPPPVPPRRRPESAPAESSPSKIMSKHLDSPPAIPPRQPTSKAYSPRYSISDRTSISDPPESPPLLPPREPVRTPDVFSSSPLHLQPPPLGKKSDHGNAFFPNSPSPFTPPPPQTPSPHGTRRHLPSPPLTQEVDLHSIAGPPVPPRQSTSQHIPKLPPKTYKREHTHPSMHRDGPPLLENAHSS
Procedure: The inhibitory effect of the compounds of the present invention on KRAS G12D:: SOS 1 binding was assessed using KRAS-G12D/SOS1 BINDING ASSAY KITS (Cisbio, Cat. No. 63ADK000CB21PEH).
The test compound (10 mM stock solution) was diluted […] to 0.1 mM with 100% DMSO and diluted at a ratio of 1:3 in a 384-well dilution plate for 11 concentrations. 0.1 µL of the gradiently-diluted compound solution was transferred to a 384-well plate using Echo. 2 replicate wells were set for each compound. The solution was centrifuged at 1000 rpm/min for 1 min. 5 µL of 4X KRAS G12D (final concentration 1X) and a GTP solution (final concentration 10 µM, sigma, Cat. No. V900868) were transferred to the 384-well reaction plate. The mixture was centrifuged at 1000 rpm/min for 1 min and incubated at 25 °C for 15 min. 5 µL of a 4X SOS1 solution (final concentration 1X) was transferred to the 384-well reaction plate. The solution was centrifuged at 1000 rpm/min for 1 min and incubated at 25 °C for 45 min. The final concentrations of BAY-293 compound were 10, 3.33, 1.11, 0.37, 0.12, 0.04, 0.014, 0.0046, 0.0015, 0.0005, 0.00017, and 0 µM. The final concentrations of the test compound were 10, 3.33, 1.11, 0.37, 0.12, 0.04, 0.014, 0.0046, 0.0015, 0.0005, 0.00017, and 0 µM. The final concentrations of DMSO were all 0.5%. 10 µL of a 2X assay reagent solution was transferred to the 384-well reaction plate. The solution was centrifuged at 1000 rpm/min for 1 min and incubated at 4 °C for 180 min. An Envision multifunctional microplate reader was used to read at an excitation wavelength of […] and an emission wavelength of 615 nm. The signal intensity of 665/615 ratio was used to characterize the degree of enzyme activity. Data processing: compound IC50 was fitted by Graphpad Prism 8 nonlinear regression equation: Negative control: DMSO
IC50 (half maximal inhibitory concentration) of the compound was obtained using the following nonlinear fitting formula: Y = Bottom + (Top−Bottom)/(1+10^(∧)((LogIC50−X)*HillSlope)) [formula] • X: log value of the concentration of the test compound • Y: inhibition percentage
Bottom is the minimum inhibition percentage, Top is the maximum inhibition percentage, and HillSlope is the Hill slope.

SMILES | IC50 [nM]
[2H][C@](C)(Nc1nc(C)nc2c(N3CCOCC3)c(=O)n(C3(CF)CC3)cc12)c1cccc(C(F)F)c1F [Example 55, (R)-4-((1-(3-(difluoromethyl)-2-fluorophenyl)ethyl-1-d)amino)-6-(1-(fluoromethyl)cyclopropyl)-2-methyl-8-morpholinylpyrido[4,3-d]pyrimidine-7(6H)-one] | 6.3
Cc1nc(N[C@H](C)c2cccc(C(F)F)c2F)c2cn(C3(CF)CC3)c(=O)c(N3CCOC[C@@H]3C)c2n1 [Example 40, 4-(((R)-1-(3-(difluoromethyl)-2-fluorophenyl)ethyl)amino)-6-(1-(fluoromethyl)cyclopropyl)-2-methyl-8-((S)-3-methylmorpholine)pyrido[4,3-d]pyrimidine-7(6H)-one] | 3.84

Results, then the molecule that gave them:

IC50 [nM] | SMILES
4.17 | [2H]C([2H])([2H])Oc1c(=O)n(C2(CF)CC2)cc2c(N[C@H](C)c3cccc(C(F)F)c3F)nc(C)nc12 [Example 23, (R)-4-((1-(3-(difluoromethyl)-2-fluorophenyl)ethyl)amino)-6-(1-(fluoromethyl)cyclopropyl)-8-(methoxy-d3)-2-methylpyrido[4,3-d]pyrimidine-7(6H)-one]
7.46 | COc1c(=O)n(N2CCOCC2)cc2c(N[C@H](C)c3cccc(C(F)F)c3F)nc(C)nc12 [Example 20, (R)-4-((1-(3-(difluoromethyl)-2-fluorophenyl)ethyl)amino)-8-methoxy-2-methyl-6-morpholinepyrido[4,3-d]pyrimidine-7(6H)-one]
6.55 | Cc1nc(N[C@H](C)c2cccc(C(F)F)c2F)c2cn(C3(CF)CC3)c(=O)c(N3CCOCC3)c2n1 [Example 34, (R)-4-((1-(3-(difluoromethyl)-2-fluorophenyl)ethyl)amino)-6-(1-(fluoromethyl)cyclopropyl)-2-methyl-8-morpholinylpyrido[4,3-d]pyrimidine-7(6H)-one]
